pIC50: −log10 of the molar value.

T1 sequence (P31153 whole entry): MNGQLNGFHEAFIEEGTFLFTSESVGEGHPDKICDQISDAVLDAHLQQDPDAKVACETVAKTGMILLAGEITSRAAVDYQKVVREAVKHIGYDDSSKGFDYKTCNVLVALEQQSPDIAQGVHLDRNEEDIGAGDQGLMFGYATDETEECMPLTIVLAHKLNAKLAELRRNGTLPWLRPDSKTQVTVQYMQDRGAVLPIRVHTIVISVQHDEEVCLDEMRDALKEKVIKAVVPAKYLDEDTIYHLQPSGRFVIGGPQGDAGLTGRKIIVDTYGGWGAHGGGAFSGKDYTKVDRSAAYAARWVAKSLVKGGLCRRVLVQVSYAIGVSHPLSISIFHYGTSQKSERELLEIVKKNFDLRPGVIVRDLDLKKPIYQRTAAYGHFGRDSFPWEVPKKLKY

The first assay has as its target T1, MAT2A homodimer (Homo sapiens, UniProt P31153).
T1 construct: inferred from the Ni sepharose purification and imidazole elution; made in house; host or cells: SF9 insect cells, recombinant baculovirus (Bac to Bac, pFASTBAC1)
Nature of the assay: MAT2A biochemical assay (liberated phosphate, PiColorLock Gold). The conditions noted are these: Table 5a; MAT2A biochemical assay; read-out: Enzyme Inhibition. How it is done: Mat2A protein was expressed by recombinant baculovirus in SF9 infected cells using the Bac to Bac system cloned into the pFASTBAC1 vector (Invitrogen, Carlsbad, Calif.). Recombinant MAT2A was isolated from the cell lysate of 150 g of infected cells using HP Ni sepharose column chromatography. Recombinant MAT2A homodimer was eluted with 250 and 500 mM imidazole, and fractions containing MAT2A were identified by sodium dodecyl sulfate polyacrylamide gel electrophoresis and pooled.
Test compound was prepared in 100% dimethyl sulfoxide (DMSO) at 50× the desired final concentration. A 1 μL volume of compound dilution was added to 40 μL of enzyme dilution and the mixture was allowed to equilibrate for 60 minutes at 25° C. The enzymatic assay was initiated by the addition of 10 μL of substrate mix (500 μM ATP, pH 7.0, 400 μM L-methionine in 1× assay buffer), and the mixture was incubated for a further 60 minutes at 25° C. The reaction was halted and the liberated phosphate released by the enzyme in stoichiometric amounts by the production of S-adenosyl methionine (SAM) was measured using the PiColorLock Gold kit (Innova Biosciences, UK). Absolute product amounts were determined by comparison to a standard curve of potassium phosphate buffer, pH 8.0.
As to `CCOc1ccc2c(n1)N(c1ccc(OC)cc1)C(=O)N(c1ccc(C#N)cc1)C2` [Example 116, 4-(7-ethoxy-1-(4-methoxyphenyl)-2-oxo-1,2-dihydropyrido[2,3-d]pyrimidin-3(4H)-yl)benzonitrile], the pIC50 is 5.00 to 6.00.
Still for that read-out and setting: with `COc1ccc(N2Cc3cnc(NCC4CC4)nc3N(c3ccncc3)C2=O)cc1` [Example 266] the figure was 5.00 to 6.00; with `COc1ccc(N2C(=O)N(c3ccc(OC)nc3)Cc3cnc(NCC(F)(F)F)nc32)cc1` [Example 239, 1-(4-methoxyphenyl)-3-(6-methoxypyridin-3-yl)-7-((2,2,2-trifluoroethyl)amino)-3,4-dihydropyrimido[4,5-d]pyrimidin-2(1H)-one], 6.00 to 7.00.
For `COc1ccc(N2C(=O)N(c3ccc(OC)cn3)Cc3cnc(NCC(F)(F)F)nc32)cc1` [Example 238, 1-(4-methoxyphenyl)-3-(5-methoxypyridin-2-yl)-7-((2,2,2-trifluoroethyl)amino)-3,4-dihydropyrimido[4,5-d]pyrimidin-2(1H)-one], the pIC50 is 6.00 to 7.00.
Turning to `COc1ccc(N2Cc3cnc(NCC(F)(F)F)nc3N(c3ccc(OC(F)(F)F)cc3)C2=O)cc1` [Example 256, 3-(4-methoxyphenyl)-7-((2,2,2-trifluoroethyl)amino)-1-(4-(trifluoromethoxy)phenyl)-3,4-dihydropyrimido[4,5-d]pyrimidin-2(1H)-one], the pIC50 was 6.00 to 7.00.
Still for that read-out and setting: for `O=C1N(c2ccc3nccn3c2)Cc2cnc(NCC(F)(F)F)nc2N1c1ccc(C2CC2)cc1` [Example 213, 1-(4-cyclopropylphenyl)-3-(imidazo[1,2-a]pyridin-6-yl)-7-((2,2,2-trifluoroethyl)amino)-3,4-dihydropyrimido[4,5-d]pyrimidin-2(1H)-one] the value was over 7.00; for `COc1ccc(N2Cc3cnc(NCC(F)(F)F)nc3N(c3ccc(-c4ccc[nH]c4=O)cc3)C2=O)cc1` [Example 279, 3-(4-methoxyphenyl)-1-(4-(2-oxo-1,2-dihydropyridin-3-yl)phenyl)-7-((2,2,2-trifluoroethyl)amino)-3,4-dihydropyrimido[4,5-d]pyrimidin-2(1H)-one], 6.00 to 7.00; for `O=C1N(c2ccc3ncccc3c2)Cc2cnc(NCC(F)(F)F)nc2N1c1ccc(OC(F)F)cc1` [Example 227, 1-(4-(difluoromethoxy)phenyl)-3-(quinolin-6-yl)-7-((2,2,2-trifluoroethyl)amino)-3,4-dihydropyrimido[4,5-d]pyrimidin-2(1H)-one], 6.00 to 7.00.
Regarding `Cn1cc2cc(N3Cc4ccc(OCC(F)F)nc4N(c4ccc5ncn(C)c5c4)C3=O)ccc2n1` [Example 173, 7-(2,2-difluoroethoxy)-1-(1-methyl-1H-benzo[d]imidazol-6-yl)-3-(2-methyl-2H-indazol-5-yl)-3,4-dihydropyrido[2,3-d]pyrimidin-2(1H)-one], the pIC50 is 6.00 to 7.00.
The same measure, in the same setting: with `Cn1cc2cc(N3Cc4ccc(OCC(F)F)nc4N(c4ccc5ncnn5c4)C3=O)ccc2n1` [Example 174, 1-([1,2,4]triazolo[1,5-a]pyridin-6-yl)-7-(2,2-difluoroethoxy)-3-(2-methyl-2H-indazol-5-yl)-3,4-dihydropyrido[2,3-d]pyrimidin-2(1H)-one] the figure was 6.00 to 7.00.
Consider `O=C1N(c2ccc3nccn3c2)Cc2cnc(NCC(F)(F)F)nc2N1c1ccc(-c2nc[nH]n2)cc1` [Example 222, 1-(4-(1H-1,2,4-triazol-3-yl)phenyl)-3-(imidazo[1,2-a]pyridin-6-yl)-7-((2,2,2-trifluoroethyl)amino)-3,4-dihydropyrimido[4,5-d]pyrimidin-2(1H)-one], for which the pIC50 is over 7.00.
Consider `Cn1cc2cc(N3Cc4ccc(OCC(F)F)nc4N(c4ccc5nccn5c4)C3=O)ccc2n1` [Example 171, 7-(2,2-difluoroethoxy)-1-(imidazo[1,2-a]pyridin-6-yl)-3-(2-methyl-2H-indazol-5-yl)-3,4-dihydropyrido[2,3-d]pyrimidin-2(1H)-one], for which the pIC50 was over 7.00.
On the same count and under the same terms, with `COc1ccc(N2Cc3cnc(NCC(F)(F)F)nc3N(c3ccc(O)cc3)C2=O)cc1` [Example 249, 1-(4-hydroxyphenyl)-3-(4-methoxyphenyl)-7-((2,2,2-trifluoroethyl)amino)-3,4-dihydropyrimido[4,5-d]pyrimidin-2(1H)-one] the figure was 6.00 to 7.00.
As for `COc1ccc(-n2c(=O)c3cnc(NCC(F)(F)F)nc3n(-c3ccc(O)cc3)c2=O)cc1` [Example 262, 1-(4-hydroxyphenyl)-3-(4-methoxyphenyl)-7-((2,2,2-trifluoroethyl)amino)pyrimido[4,5-d]pyrimidine-2,4(1H,3H)-dione], the pIC50 was 6.00 to 7.00.
On the same count and under the same terms, with `COc1ccc(N2Cc3cnc(NCC(F)(F)F)nc3N(c3ccc(N)cc3)C2=O)cc1` [Example 204, 1-(4-aminophenyl)-3-(4-methoxyphenyl)-7-((2,2,2-trifluoroethyl)amino)-3,4-dihydropyrimido[4,5-d]pyrimidin-2(1H)-one] the figure was 6.00 to 7.00; with `CCOc1ccc2c(n1)N(c1cnc(C(F)(F)F)nc1)C(=O)N(c1ccc3nn(C)cc3c1)C2` [Example 148, 7-ethoxy-3-(2-methyl-2H-indazol-5-yl)-1-(2-(trifluoromethyl)pyrimidin-5-yl)-3,4-dihydropyrido[2,3-d]pyrimidin-2(1H)-one], 6.00 to 7.00; with `COc1ccc(N2Cc3cnc(NCC(F)(F)F)nc3N(c3ccc(-c4ccsn4)cc3)C2=O)cc1` [Example 207, 1-(4-(isothiazol-3-yl)phenyl)-3-(4-methoxyphenyl)-7-((2,2,2-trifluoroethyl)amino)-3,4-dihydropyrimido[4,5-d]pyrimidin-2(1H)-one], 5.00 to 6.00.
The same measure, in the same setting: for `Cc1ccc(N2C(=O)N(c3ccc4nn(C)cc4c3)Cc3cnc(NCC(F)(F)F)nc32)cn1` [Example 433, 3-(2-methyl-2H-indazol-5-yl)-1-(6-methylpyridin-3-yl)-7-((2,2,2-trifluoroethyl)amino)-3,4-dihydropyrimido[4,5-d]pyrimidin-2(1H)-one] the value was over 7.00.
Same read-out and setting: for `COc1ccc(N2C(=O)N(c3ccc4nn(C)cc4c3)Cc3cnc(NC4CCCCC4)nc32)cc1` [Example 248, 7-(cyclohexylamino)-1-(4-methoxyphenyl)-3-(2-methyl-2H-indazol-5-yl)-3,4-dihydropyrimido[4,5-d]pyrimidin-2(1H)-one] the value was 5.00 to 6.00; for `CCN(CC)c1ccc2c(n1)N(c1ccc(OC)cc1)C(=O)N(c1ccc3nn(C)cc3c1)C2` [Example 159, 7-(diethylamino)-1-(4-methoxyphenyl)-3-(2-methyl-2H-indazol-5-yl)-3,4-dihydropyrido[2,3-d]pyrimidin-2(1H)-one], 5.00 to 6.00.
As for `Cn1cc2cc(N3Cc4cnc(OCC(F)(F)F)nc4N(c4ccc(-c5nc[nH]n5)cc4)C3=O)ccc2n1` [Example 191, 1-(4-(1H-1,2,4-triazol-3-yl)phenyl)-3-(2-methyl-2H-indazol-5-yl)-7-(2,2,2-trifluoroethoxy)-3,4-dihydropyrimido[4,5-d]pyrimidin-2(1H)-one], the pIC50 is over 7.00.
The same measure, in the same setting: with `Cn1cc2cc(N3Cc4cnc(NCC(F)(F)F)nc4N(c4ccc(Cl)cc4)C3=O)ccc2n1` [Example 263, 1-(4-chlorophenyl)-3-(2-methyl-2H-indazol-5-yl)-7-((2,2,2-trifluoroethyl)amino)-3,4-dihydropyrimido[4,5-d]pyrimidin-2(1H)-one] the figure was over 7.00; with `COc1ccc(N2Cc3cnc(NCC(F)(F)F)nc3N(c3ccc(C(N)=O)cc3)C2=O)cc1` [Example 276, 4-(3-(4-methoxyphenyl)-2-oxo-7-((2,2,2-trifluoroethyl)amino)-3,4-dihydropyrimido[4,5-d]pyrimidin-1(2H)-yl)benzamide], 6.00 to 7.00; with `COc1ccc(N2Cc3cnc(NCC(F)(F)F)nc3N(c3ccc(C)cc3)C2=O)cc1` [Example 243, 3-(4-methoxyphenyl)-1-(p-tolyl)-7-((2,2,2-trifluoroethyl)amino)-3,4-dihydropyrimido[4,5-d]pyrimidin-2(1H)-one], 6.00 to 7.00.
The same measure, in the same setting: for `COc1ccc(N2C(=O)N(c3ccc4nn(C)cc4c3)Cc3ccc(N4CCOCC4)nc32)cc1` [Example 157, 1-(4-methoxyphenyl)-3-(2-methyl-2H-indazol-5-yl)-7-morpholino-3,4-dihydropyrido[2,3-d]pyrimidin-2(1H)-one] the value was 6.00 to 7.00.

The assay is the same for the next values; noted with them: Table 5b; Additional Examples; read-out: Enzyme Inhibition.
Turning to `COc1ccc(N2Cc3cnc(NCC(F)(F)F)nc3N(c3ccc(C(=O)O)cc3)C2=O)cc1`, the pIC50 was under 5.00.
For `COc1ccc(N2Cc3cnc(NCC(F)(F)F)nc3N(c3cccc(Br)c3)C2=O)cc1`, the pIC50 was under 5.00.
Take `COc1ccc(N2Cc3cnc(NCC(F)(F)F)nc3N(c3ccnnc3)C2=O)cc1`: the pIC50 is under 5.00.
On the same count and under the same terms, for `COc1ccc(N2Cc3cnc(NCC(F)(F)F)nc3N(c3ccc(CC(C)O)cc3)C2=O)cc1` (stereo not drawn) the value was 6.00 to 7.00; for `COc1ccc(N2Cc3cnc(NCC(F)(F)F)nc3N(S(C)(=O)=O)C2=O)cc1`, under 5.00.
Take `COc1ccc(N2Cc3cnc(NCC(F)(F)F)nc3N(c3ccc(C(C)(C)CO)cc3)C2=O)cc1`: the pIC50 is 6.00 to 7.00.
On the same count and under the same terms, with `COc1ccc(N2Cc3cnc(NCC(F)(F)F)nc3N(c3ccc(-c4ccccc4)cc3)C2=O)cc1` the figure was under 5.00; with `COc1ccc(N2C(=O)N(c3ccc4nn(C)cc4c3)Cc3ccc(Nc4ccccc4)nc32)cc1`, under 5.00.
